Source: patent publication US20180221319A1, “METHODS OF TREATING SEIZURE DISORDERS AND PRADER-WILLI SYNDROME” (Ovid Therapeutics Inc., priority 2017, published 2018)

How the values were obtained:
[1] = plasma pharmacokinetics (elimination half-life, Cmax, AUC versus dose); details: dose range of 5 mg-500 mg
Source text: (§1) “PK” refers to the pharmacokinetic profile. Cmax is defined as the highest plasma drug concentration estimated during an experiment (ng/ml). Tmax is defined as the time when Cmax is estimated (min). AUC0-∞ is the total area under the plasma drug concentration-time curve, from drug administration until the drug is eliminated (ng·hr/ml or g*hr/ml). The area under the curve is governed by clearance. Clearance is defined as the volume of blood or plasma that is totally cleared of its content of drug per unit time (ml/min).

in vivo = details: plasma
Source text: as §1

AUCs dose proportionality [1]: greater than proportional increase
Cmax dose proportionality [1]: increases in a dose proportional manner
half-life (in vivo): 4 to 6 h
Structure (SMILES): N[C@H]1C[C@@H](C(=O)O)CC1=C(F)F
